Measured values as given in PubChem BioAssay (NCI).
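Briefly, cells in 96-well plates were exposed to five compound concentrations for 48 h, and endpoints were estimated by linear interpolation. At the GI50, growth is halved. TGI: total growth inhibition.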

How the values were obtained:
Experiment in all cases: inhibition of tumour cell growth, NCI panel, 48 h; in the data active = GI50 below about 0.43 µM; inactive = the rest
RPMI-8226 leukemia = test system: RPMI-8226 leukemia
LOX IMVI melanoma = test system: LOX IMVI melanoma
SF-539 CNS = test system: SF-539 CNS
786-0 renal = test system: 786-0 renal
T-47D breast = test system: T-47D breast
HCC-2998 colon = test system: HCC-2998 colon
ACHN renal = test system: ACHN renal
SK-OV-3 ovarian = test system: SK-OV-3 ovarian
HL-60(TB) leukemia = test system: HL-60(TB) leukemia
K-562 leukemia = test system: K-562 leukemia
MDA-MB-231 breast = test system: MDA-MB-231 breast
TK-10 renal = test system: TK-10 renal
HS 578T breast = test system: HS 578T breast
SK-MEL-2 melanoma = test system: SK-MEL-2 melanoma
DU-145 prostate = test system: DU-145 prostate
SK-MEL-5 melanoma = test system: SK-MEL-5 melanoma
UO-31 renal = test system: UO-31 renal
NCI-H226 lung = test system: NCI-H226 lung
A498 renal = test system: A498 renal
MALME-3M melanoma = test system: MALME-3M melanoma
MDA-MB-435 = test system: MDA-MB-435
RXF 393 renal = test system: RXF 393 renal
A549 NSCLC = test system: A549 NSCLC
MCF7 breast = test system: MCF7 breast
SK-MEL-28 melanoma = test system: SK-MEL-28 melanoma
SF-268 CNS = test system: SF-268 CNS
SN12C renal = test system: SN12C renal
SNB-19 CNS = test system: SNB-19 CNS
OVCAR-3 ovarian = test system: OVCAR-3 ovarian
OVCAR-4 ovarian = test system: OVCAR-4 ovarian
BT-549 breast = test system: BT-549 breast
CCRF-CEM leukemia = test system: CCRF-CEM leukemia
SW-620 colon = test system: SW-620 colon
EKVX NSCLC = test system: EKVX NSCLC
NCI-H460 lung = test system: NCI-H460 lung
OVCAR-5 ovarian = test system: OVCAR-5 ovarian
HT29 colon = test system: HT29 colon
COLO 205 colon = test system: COLO 205 colon
SR leukemia = test system: SR leukemia
SF-295 CNS = test system: SF-295 CNS
IGROV1 ovarian = test system: IGROV1 ovarian
U251 CNS = test system: U251 CNS
HOP-62 NSCLC = test system: HOP-62 NSCLC
HCT-116 colon = test system: HCT-116 colon
M14 melanoma = test system: M14 melanoma
PC-3 prostate = test system: PC-3 prostate
NCI/ADR-RES ovarian = test system: NCI/ADR-RES ovarian
UACC-62 melanoma = test system: UACC-62 melanoma
CAKI-1 renal = test system: CAKI-1 renal
NCI-H23 lung = test system: NCI-H23 lung
KM12 colon = test system: KM12 colon
MOLT-4 leukemia = test system: MOLT-4 leukemia
NCI-H522 lung = test system: NCI-H522 lung
OVCAR-8 ovarian = test system: OVCAR-8 ovarian
UACC-257 melanoma = test system: UACC-257 melanoma
HCT-15 colon = test system: HCT-15 colon
SNB-75 CNS = test system: SNB-75 CNS
HOP-92 NSCLC = test system: HOP-92 NSCLC

CCN1C(=O)N(CC)C2C1NC(=S)N2/N=C/C=C/c1ccccc1 (stereo not drawn)
4.45 µM: TGI (NCI-H522 lung)
> 58.6 µM: TGI (HCC-2998 colon)
0.146 µM: TGI (A498 renal)
0.871 µM: TGI (SF-539 CNS)
5.44 µM: TGI (COLO 205 colon)
13 µM: TGI (BT-549 breast)
> 86.6 µM: TGI (UO-31 renal)
> 64.2 µM: TGI (RPMI-8226 leukemia)
11.3 µM: TGI (SK-MEL-5 melanoma)
0.29 µM: TGI (HL-60(TB) leukemia)
active: GI50 (RPMI-8226 leukemia) 0.183 µM | GI50 (LOX IMVI melanoma) 0.154 µM | GI50 (SF-539 CNS) 0.0633 µM | GI50 (786-0 renal) 0.158 µM | GI50 (HCC-2998 colon) 0.328 µM | GI50 (ACHN renal) 0.098 µM | GI50 (HL-60(TB) leukemia) 0.0387 µM | GI50 (K-562 leukemia) 0.0495 µM | GI50 (MDA-MB-231 breast) 0.376 µM | GI50 (HS 578T breast) 0.0824 µM | GI50 (DU-145 prostate) 0.377 µM | GI50 (SK-MEL-5 melanoma) 0.145 µM | GI50 (UO-31 renal) 0.192 µM | GI50 (NCI-H226 lung) 0.383 µM | GI50 (A498 renal) 0.0249 µM | GI50 (MDA-MB-435) 0.0253 µM | GI50 (RXF 393 renal) 0.0899 µM | GI50 (A549 NSCLC) 0.176 µM | GI50 (MCF7 breast) 0.0418 µM | GI50 (SF-268 CNS) 0.32 µM | GI50 (SN12C renal) 0.385 µM | GI50 (SNB-19 CNS) 0.127 µM | GI50 (OVCAR-3 ovarian) 0.0425 µM | GI50 (BT-549 breast) 0.225 µM | GI50 (CCRF-CEM leukemia) 0.128 µM | GI50 (SW-620 colon) 0.0726 µM | GI50 (NCI-H460 lung) 0.176 µM | GI50 (HT29 colon) 0.111 µM | GI50 (COLO 205 colon) 0.213 µM | GI50 (SR leukemia) 0.0444 µM | GI50 (SF-295 CNS) 0.0666 µM | GI50 (IGROV1 ovarian) 0.142 µM | GI50 (U251 CNS) 0.302 µM | GI50 (HCT-116 colon) 0.106 µM | GI50 (M14 melanoma) 0.0881 µM | GI50 (PC-3 prostate) 0.0734 µM | GI50 (NCI/ADR-RES ovarian) 0.0935 µM | GI50 (UACC-62 melanoma) 0.0439 µM | GI50 (CAKI-1 renal) 0.0719 µM | GI50 (KM12 colon) 0.0924 µM | GI50 (MOLT-4 leukemia) 0.277 µM | GI50 (NCI-H522 lung) 0.0486 µM | GI50 (OVCAR-8 ovarian) 0.27 µM | GI50 (HCT-15 colon) 0.0849 µM
> 100 µM: TGI (LOX IMVI melanoma) | TGI (786-0 renal) | TGI (T-47D breast) | TGI (ACHN renal) | TGI (SK-OV-3 ovarian) | TGI (K-562 leukemia) | TGI (TK-10 renal) | TGI (HS 578T breast) | TGI (SK-MEL-2 melanoma) | TGI (DU-145 prostate) | TGI (NCI-H226 lung) | TGI (MALME-3M melanoma) | TGI (RXF 393 renal) | TGI (A549 NSCLC) | TGI (MCF7 breast) | TGI (SK-MEL-28 melanoma) | TGI (SF-268 CNS) | TGI (SN12C renal) | TGI (SNB-19 CNS) | TGI (OVCAR-3 ovarian) | TGI (OVCAR-4 ovarian) | TGI (CCRF-CEM leukemia) | TGI (SW-620 colon) | TGI (EKVX NSCLC) | TGI (NCI-H460 lung) | TGI (OVCAR-5 ovarian) | TGI (SR leukemia) | TGI (SF-295 CNS) | TGI (IGROV1 ovarian) | TGI (U251 CNS) | TGI (HOP-62 NSCLC) | TGI (HCT-116 colon) | TGI (M14 melanoma) | TGI (PC-3 prostate) | TGI (NCI/ADR-RES ovarian) | TGI (UACC-62 melanoma) | TGI (CAKI-1 renal) | TGI (NCI-H23 lung) | TGI (KM12 colon) | TGI (MOLT-4 leukemia) | TGI (OVCAR-8 ovarian) | TGI (UACC-257 melanoma) | TGI (HCT-15 colon)
> 28.1 µM: TGI (MDA-MB-231 breast)
0.0664 µM: TGI (MDA-MB-435)
inactive: GI50 (T-47D breast) 21.5 µM | GI50 (SK-OV-3 ovarian) 0.494 µM | GI50 (TK-10 renal) 3.66 µM | GI50 (SK-MEL-2 melanoma) 0.661 µM | GI50 (MALME-3M melanoma) 3.55 µM | GI50 (SK-MEL-28 melanoma) 1.91 µM | GI50 (OVCAR-4 ovarian) 3.31 µM | GI50 (EKVX NSCLC) 0.634 µM | GI50 (OVCAR-5 ovarian) 0.465 µM | GI50 (NCI-H23 lung) 0.546 µM | GI50 (UACC-257 melanoma) > 100 µM
> 31.8 µM: TGI (HT29 colon)

COC(=O)[C@H](C)NC(=O)[C@H](NS(=O)(=O)c1nc2ccccc2s1)c1ccccc1
30.5 µM: TGI (KM12 colon)
31.9 µM: TGI (LOX IMVI melanoma) | TGI (SK-MEL-28 melanoma)
30.6 µM: TGI (NCI-H226 lung)
33.7 µM: TGI (OVCAR-8 ovarian)
22.9 µM: TGI (M14 melanoma)
40.5 µM: TGI (SK-MEL-5 melanoma)
35.8 µM: TGI (UO-31 renal)
32.4 µM: TGI (T-47D breast)
34.8 µM: TGI (RXF 393 renal)
28.3 µM: TGI (UACC-62 melanoma)
27.4 µM: TGI (HOP-92 NSCLC)
30.4 µM: TGI (SF-539 CNS)
26.3 µM: TGI (UACC-257 melanoma)
36.5 µM: TGI (HS 578T breast)
33.5 µM: TGI (SF-268 CNS)
44.5 µM: TGI (HCC-2998 colon)
25.9 µM: TGI (COLO 205 colon)
39.4 µM: TGI (SNB-75 CNS)
25.2 µM: TGI (SK-MEL-2 melanoma)
41 µM: TGI (DU-145 prostate) | TGI (U251 CNS)
67.2 µM: TGI (CAKI-1 renal)
64.6 µM: TGI (MDA-MB-231 breast)
74.4 µM: TGI (HOP-62 NSCLC)
80.4 µM: TGI (786-0 renal)
73.3 µM: TGI (SNB-19 CNS)
> 100 µM: TGI (RPMI-8226 leukemia) | TGI (ACHN renal) | TGI (SK-OV-3 ovarian) | TGI (HL-60(TB) leukemia) | TGI (K-562 leukemia) | TGI (TK-10 renal) | TGI (MDA-MB-435) | TGI (MCF7 breast) | TGI (OVCAR-4 ovarian) | TGI (BT-549 breast) | TGI (CCRF-CEM leukemia) | TGI (SW-620 colon) | TGI (EKVX NSCLC) | TGI (NCI-H460 lung) | TGI (HT29 colon) | TGI (SR leukemia) | TGI (SF-295 CNS) | TGI (IGROV1 ovarian) | TGI (HCT-116 colon) | TGI (PC-3 prostate) | TGI (NCI/ADR-RES ovarian) | TGI (NCI-H23 lung) | TGI (MOLT-4 leukemia) | TGI (HCT-15 colon)

Cc1ccc(S(=O)(=O)OCCN(CCOS(=O)(=O)c2ccc(C)cc2)c2ccc(C=O)cc2)cc1
56 µM: TGI (OVCAR-3 ovarian)
91 µM: TGI (EKVX NSCLC)
97.3 µM: TGI (MALME-3M melanoma)
71.5 µM: TGI (U251 CNS)
75.3 µM: TGI (HOP-92 NSCLC)
92.9 µM: TGI (MCF7 breast)
44.4 µM: TGI (MDA-MB-435)
44.3 µM: TGI (OVCAR-4 ovarian)
> 100 µM: TGI (RPMI-8226 leukemia) | TGI (LOX IMVI melanoma) | TGI (SF-539 CNS) | TGI (T-47D breast) | TGI (ACHN renal) | TGI (HL-60(TB) leukemia) | TGI (K-562 leukemia) | TGI (MDA-MB-231 breast) | TGI (TK-10 renal) | TGI (HS 578T breast) | TGI (SK-MEL-5 melanoma) | TGI (A549 NSCLC) | TGI (SF-268 CNS) | TGI (SNB-19 CNS) | TGI (BT-549 breast) | TGI (CCRF-CEM leukemia) | TGI (SW-620 colon) | TGI (HT29 colon) | TGI (COLO 205 colon) | TGI (SF-295 CNS) | TGI (IGROV1 ovarian) | TGI (HCT-116 colon) | TGI (M14 melanoma) | TGI (PC-3 prostate) | TGI (NCI/ADR-RES ovarian) | TGI (NCI-H23 lung) | TGI (MOLT-4 leukemia) | TGI (OVCAR-8 ovarian) | TGI (HCT-15 colon)
61 µM: TGI (A498 renal) | TGI (UACC-257 melanoma)
53 µM: TGI (KM12 colon)
48.8 µM: TGI (CAKI-1 renal)
41.3 µM: TGI (UO-31 renal)
34.1 µM: TGI (NCI-H522 lung)
85.5 µM: TGI (HCC-2998 colon)
48.6 µM: TGI (NCI-H460 lung)
33.2 µM: TGI (RXF 393 renal)
81.3 µM: TGI (SK-MEL-28 melanoma)
69.9 µM: TGI (DU-145 prostate)
64.8 µM: TGI (OVCAR-5 ovarian)
40.1 µM: TGI (SK-MEL-2 melanoma)
39.5 µM: TGI (UACC-62 melanoma)
